Data set [1] is classed as physicochemical. As to conditions: sealed brown vials. Here is the method: (2) The trihydrate, monohydrate, hemihydrate, and anhydride were sealed up in the brown vials respectively and stored at 85° C. and were analyzed by high performance liquid chromatography later. The result is shown in the following table (residuum percentage: %).
Data set [2] is described as follows: moisture uptake. It is filed as physicochemical.
A short description of data set [3]: physchem. The note with it: water.
In data set [4] the test system is Gram-positive and Gram-negative bacterials. The note with it: Japanese Laid-Open Patent Publication No. 219292/1984; cited from earlier work.
Data set [5] has as its system various kinds of Gram-positive and Gram-negative bacterias. Put plainly: antibacterial activity against Gram-positive and Gram-negative bacteria (general statement). Format: cell-based.
The test system of data set [6] is Typhoid bacillus 901. Put plainly: antibacterial activity, agar dilution plating method (MIC). It is filed as cell-based. As to the method: (§1) (ii) The antibacterial activity of the obtained amorphous substance was determined according to the ordinary agar dilution plating method (see the Chemotherapy, 23(8), 1 (1975), of Japan Chemotherapy Society).
The subject of data set [7] is Pseudomonas aeruginosa IFO 3445. The description is as above. Format: cell-based. The note with it: IFO3445. Here is the method: as §1
For data set [8], the system named is Staphylococcus aureus FDA 209 PJC-1. The description is as above. It is filed as cell-based. The note with it: FDA209. As to the method:
as §1

The test system of data set [9] is Coliform bacillus NIHJ-JC-2. Described as above. Format: cell-based. As to conditions: NIHJJC2. As to the method:
as §1

The test system of data set [10] is Proteus vulgaris OX-19. Described as above. It is filed as cell-based. The note with it: OX19. As to the method: as §1
Data set [11] has as its system Aerobacter aerogenes ATCC 13048. The description is as above. It is filed as cell-based. As to conditions: Klebsiella aerogenes, ATCC13048. Here is the method: as §1
In data set [12] the test system is Bacillus prodigiosus IAM 1184. The description is as above. Format: cell-based. The note with it: IAM1184. Here is the method:
as §1

Structures are written as SMILES. Converted amounts (≈) assume the structure as drawn. Where two headings read alike, the source gives them in different places.

Take `CO/N=C(\C(=O)N[C@@H]1C(=O)N2C(C(=O)[O-])=C(C[N+]34CCC(CC3)CC4)CS[C@H]12)c1csc(N)n1` [Trihydrate, (6R,7R)-7-[(Z)-2-(2-aminothiazole-4-yl)-2-methoxyiminoacetoamido]-3-(1-quinuclidiniummethyl)-3-cephem-4-carboxylate]: the residuum percentage was 97.0% in data set [1] (240 h) and 86.8% in data set [1] (576 h).
As for `CO/N=C(\C(=O)N[C@@H]1C(=O)N2C(C(=O)[O-])=C(C[N+]34CCC(CC3)CC4)CS[C@H]12)c1csc(N)n1` [Anhydride, (6R,7R)-7-[(Z)-2-(2-aminothiazole-4-yl)-2-methoxyiminoacetoamido]-3-(1-quinuclidiniummethyl)-3-cephem-4-carboxylate], in data set [2], the “conversion upon being allowed to take up moisture” value (“conversion upon being allowed” for short) was “reversionally converted back to the original trihydrate”. Also, the residuum percentage is given as 97.5% in data set [1] (240 h) and 86.0% in [1] (576 h).
With `CO/N=C(\C(=O)N[C@@H]1C(=O)N2C(C(=O)[O-])=C(C[N+]34CCC(CC3)CC4)CS[C@H]12)c1csc(N)n1` [cephalosporin derivative A, (6R,7R)-7-[(Z)-2-(2-aminothiazole-4-yl)-2-methoxyiminoacetoamido]-3-(1-quinuclidiniummethyl)-3-cephem-4-carboxylate], the solubility in [3] was approximately 300 mg/mL (≈ 592000 µM). Further, in [4], the antibacterial activity entry is on record as “strong antibacterial activity”.
`CO/N=C(\C(=O)N[C@@H]1C(=O)N2C(C(=O)[O-])=C(C[N+]34CCC(CC3)CC4)CS[C@H]12)c1csc(N)n1` [Hemihydrate, (6R,7R)-7-[(Z)-2-(2-aminothiazole-4-yl)-2-methoxyiminoacetoamido]-3-(1-quinuclidiniummethyl)-3-cephem-4-carboxylate]: the “conversion upon being allowed” value in data set [2] is listed as “reversionally converted back to the original trihydrate”. Besides, the residuum percentage in [1] (240 h) is given as 98.3%; in data set [1] (576 h) it was 86.3%.
Turning to `CO/N=C(\C(=O)N[C@@H]1C(=O)N2C(C(=O)[O-])=C(C[N+]34CCC(CC3)CC4)CS[C@H]12)c1csc(N)n1` [Amorphous substance, (6R,7R)-7-[(Z)-2-(2-aminothiazole-4-yl)-2-methoxyiminoacetoamido]-3-(1-quinuclidiniummethyl)-3-cephem-4-carboxylate], the residuum percentage in data set [1] (240 h) and in [1] (576 h) was 0% each time.
`CO/N=C(\C(=O)N[C@@H]1C(=O)N2C(C(=O)[O-])=C(C[N+]34CCC(CC3)CC4)CS[C@H]12)c1csc(N)n1` [Monohydrate, (6R,7R)-7-[(Z)-2-(2-aminothiazole-4-yl)-2-methoxyiminoacetoamido]-3-(1-quinuclidiniummethyl)-3-cephem-4-carboxylate]: the “conversion upon being allowed” value in data set [2] is “reversionally converted back to the original trihydrate”. Also, the residuum percentage in [1] (240 h) is 96.1%; in [1] (576 h) it was 85.5%.
As to `CO/N=C(\C(=O)N[C@@H]1C(=O)N2C(C(=O)[O-])=C(C[N+]34CCC(CC3)CC4)CS[C@H]12)c1nsc(N)n1` [cephalosporin derivative B, (6R,7R)-7-[(Z)-2-(5-amino-1-thia-2,4-diazole-3-yl)-2-methoxyiminoacetoamido]-3-(1-quinuclidiniummethyl)-3-cephem-4-carboxylate], the antibacterial activity entry in data set [5] is given as “strong antibacterial activity”. Also, the MIC is 0.2 µg/mL (≈ 0.394 µM) in [6]; 0.4 µg/mL (≈ 0.788 µM) in [7]; 3.1 µg/mL (≈ 6.11 µM) in [8]; 0.05 µg/mL (≈ 0.0985 µM) in [9]; 0.2 µg/mL (≈ 0.394 µM) in data set [10]; 0.1 µg/mL (≈ 0.197 µM) in data set [11]. The molecule also came in with an MIC in data set [12] of 0.1 µg/mL (≈ 0.197 µM). The solubility in data set [3] was approximately 300 mg/mL (≈ 591000 µM).

These data come from patent publication US4668782A, “Anhydrous crystalline or crystalline hemihydrate monohydrate or trihydrate of cephalosporin derivative” (Teijin Limited, priority 1984, dated 1987).
